Active and inactive are the calls of the source. The rule behind the calls is not given here.

The experiment deals with RanGTP-importin-beta complex (human Ran / KPNB1). As to the kind of experiment: Ran–importin-beta interaction inhibitors, confirmation, biochemical, FRET, CFP/YFP, cell-free homogeneous (AID 2823). Particulars: CFP-Ran/YFP-importin-beta FRET ratio.
With `CC(=O)c1ccc(-c2cccs2)s1`, the IC50 was 34.7 µM.
As for `COCc1cc(CN2CCN(C)CC2)c(O)c2ncccc12`, the IC50 is > 50 µM (inactive).
For `COc1ccc(-c2csc3ncnc(N4CCN(c5ccc(OC)cc5)CC4)c23)cc1`, the IC50 was > 50 µM (inactive).
Take `Cc1cccc(N2CCN(C(=O)C3COc4ccccc4O3)CC2)c1C` (stereo unspecified): the IC50 is > 50 µM (inactive).
For `CCCCn1c(N)c(N(CCOC)C(=O)CN2c3ccccc3CC2C)c(=O)[nH]c1=O` (stereo unspecified) the value was > 50 µM (inactive).
On to `Cc1cccc(NC(=O)c2cc3c(s2)-c2c(C)cccc2OC3)n1`, for which the IC50 was 7.45 µM.
As for `COc1cc(C2C3CN(C)CC=C3C(C#N)=C(N)C2(C#N)C#N)ccc1OC(C)C` (stereo unspecified), the IC50 is 12.1 µM.
Turning to `CCOC(=O)c1[nH]c(C)c(C(=O)N(C)Cc2ccccc2)c1C`, the IC50 is > 50 µM (inactive).
With `O=C(Cn1c(=O)c2cccn2c2cccnc21)NCCCN1CCN(c2ccc(F)cc2)CC1` the figure was > 50 µM (inactive); with `COCCN1C=C(C(=O)OC)C(c2cc(Br)c(OC)c(OC)c2)C(C(=O)OC)=C1`, 21.4 µM.
With `CC(=O)N1CCc2c(sc(NC(=O)CS(=O)(=O)c3ccc(F)cc3)c2C(N)=O)C1` the figure was > 50 µM (inactive); with `COc1ccc(C(=O)/C=C(\C)NCc2ccc3c(c2)OCO3)cc1`, > 50 µM (inactive).
As to `S=c1[nH]c2ccc3ccccc3c2[nH]1`, the IC50 is > 50 µM (inactive).
For the compound `Cc1cccc(Oc2nc(-c3cccc([N+](=O)[O-])c3)nc3ccccc23)c1C`, the IC50 was > 50 µM (inactive).
Turning to `Cn1c(=O)c2c(ncn2CCOc2ccc(F)cc2)n(C)c1=O`, the IC50 was > 50 µM (inactive).
Regarding `O=c1cn[nH]c2ccccc12`, the IC50 was > 50 µM (inactive).
On to `Oc1c(C=Nc2ccccc2)sc(=S)n1Cc1ccccc1`, for which the IC50 was > 50 µM (inactive).
For `CC(=O)N(c1ccc(Cl)cc1)c1c[nH]c2ccccc12` the value was > 50 µM (inactive); for `COCC(C)OC(=O)c1c(N)n(CC(C)C)c2nc3ccccc3nc12` (stereo unspecified), 28.5 µM.
For `NS(=O)(=O)c1cccc(NC(=O)CCSc2ccc(Cl)cc2)c1` the value was > 50 µM (inactive); for `COc1ccc(OC(=O)C2CC(=O)N(c3ccc(C)cc3)C2)cc1` (stereo unspecified), > 50 µM (inactive); for `C=CCn1c(N)c(C(=O)OCCC)c2nc3ccccc3nc21`, 26 µM.
Turning to `Cc1c(Cl)c([N+](=O)[O-])nn1CCCC(=O)Nc1sc2c(c1C(N)=O)CCC(C)C2` (stereo unspecified), the IC50 was > 50 µM (inactive).
For the compound `CCN(CC)c1nc(-c2ccccc2)cc(C(F)(F)F)c1C#N`, the IC50 was 7.28 µM.
`CCOc1ccc(C(=O)c2cc3ccc(O)cc3oc2=O)cc1`: the IC50 is 9.4 µM.
As for `Cc1ccc(-n2c(=O)c(C#N)cc3c(=O)n4ccccc4nc32)cc1C`, the IC50 was > 50 µM (inactive).
For `Cc1ccc(Nc2cc(C)nn2-c2nc(C)cc(C)n2)cc1` the value was > 50 µM (inactive); for `COC(=O)c1c(NC(NC(=O)c2ccccc2)(C(F)(F)F)C(F)(F)F)sc2c1CCN(C)C2`, 35.8 µM.
As to `COc1ccccc1N1CCN(C(=O)/C=C/c2ccc(C)cc2)CC1`, the IC50 is > 50 µM (inactive).
In the case of `COc1ccccc1NC(=O)c1cc2ccccc2nc1C`, the IC50 was > 50 µM (inactive).
With `COCCNC(=O)/C(C#N)=C/c1c(N2CCN(c3ccc(OC)cc3)CC2)nc2c(C)cccn2c1=O` the figure was 39.2 µM.
With `Cc1ccc(C2C(C#N)=C(N)N(c3cccnc3)C3=C2C(=O)CCC3)c(C)c1` (stereo unspecified) the figure was > 50 µM (inactive); with `CCN1C(=O)C2(C(C#N)=C(N)Oc3n[nH]c(C(C)C)c32)c2ccccc21` (stereo unspecified), > 50 µM (inactive).
For `CCOC(=O)C1=C(N)OC2=C(C(=O)CCC2)C1c1sccc1C` (stereo unspecified) the value was > 50 µM (inactive); for `CCN(CC)S(=O)(=O)c1ccc(NC(=O)c2ccc(Sc3nncn3C)c([N+](=O)[O-])c2)cc1`, > 50 µM (inactive); for `COc1cc2c(cc1OC)CN(Cc1cc(=O)oc3cc(C)c(Cl)cc13)CC2`, > 50 µM (inactive).
With `CCOc1cc(NS(=O)(=O)c2ccc(NC(C)=O)cc2)c(OCC)cc1NC(=O)C(C)C`, the IC50 is > 50 µM (inactive).
For `CCOC(=O)C(=O)Nc1cc(C(=O)OC)cc(C(=O)OC)c1` the value was > 50 µM (inactive); for `O=c1cc(N2CCc3ccccc3C2)[nH]c(=O)n1C1CCCCC1`, > 50 µM (inactive).
For `COc1cc2c(cc1OC)CN(Cc1ccccc1)CC2` the value was > 50 µM (inactive); for `CCCn1c(O)c(C=Nc2ccccc2)sc1=S`, 39.4 µM; for `COc1cc(NC(=O)C2CC2)c(OC)cc1NC(=O)c1ccco1`, > 50 µM (inactive).
For the compound `Cc1noc(C)c1C(=O)Nc1sc2c(c1C(N)=O)CCC2`, the IC50 is > 50 µM (inactive).
Consider `Cc1cc(NC(=O)c2c(F)c(F)c(F)c(F)c2F)no1`, for which the IC50 was > 50 µM (inactive).
With `O=S(=O)(Cc1ccc(Cl)cc1)Nc1ccc2c(c1)OCO2` the figure was > 50 µM (inactive); with `CCN1CCN(c2cc(=O)n(Cc3ccc(F)cc3)c(=O)[nH]2)CC1`, > 50 µM (inactive).
For `COc1c2ccccc2nc2ccccc12` the value was 8.46 µM; for `CCNc1nnc(CSc2nc3ccccc3s2)s1`, > 50 µM (inactive).
`COc1cc(OC)cc(C(=O)NCCNc2nc3cc(C)cc(C)c3cc2C#N)c1`: the IC50 is 8.59 µM.
With `O=C(c1ccco1)N1CCN(c2cc(=O)n(-c3ccc(Cl)cc3)c(=O)[nH]2)CC1` the figure was > 50 µM (inactive); with `O=C(c1cccc(-c2ccccc2)c1)N1CC[C@@H](N2CCC(O)CC2)[C@H](O)C1`, > 50 µM (inactive); with `Cn1c2ccccc2c(=O)c2ccc(F)cc21`, 12.6 µM.
As to `CS(=O)(=O)N(CC(=O)NCCSCc1ccco1)c1ccc(Cl)cc1`, the IC50 was > 50 µM (inactive).
As to `CCc1ccc(C2C3=C(CC(C)(C)CC3=O)Nc3c2c(=O)[nH]c2nc(C)nn32)cc1` (stereo unspecified), the IC50 is 7.01 µM.
With `N#C/C(=C/c1ccc(N2CCOCC2)o1)C(=O)N1CCOCC1` the figure was 4.46 µM.
For `CN1CCN(C(=O)c2cc3nc(-c4ccccc4)cc(C(F)(F)F)n3n2)CC1` the value was > 50 µM (inactive).
With `CCOC(=O)c1sc(NC(=O)Nc2ccc(F)cc2)nc1C` the figure was > 50 µM (inactive); with `COCCNC(=O)c1c(NC(=O)c2ccco2)n(Cc2ccccc2)c2nc3ccccc3nc12`, 1.91 µM.
As to `Cc1csc2ncnc(NC3CCN(Cc4ccccc4)CC3)c12`, the IC50 is > 50 µM (inactive).
For `O=C(Nc1cccc(OC(=O)N2CCCCC2)c1)N1CCCCC1`, the IC50 is > 50 µM (inactive).
On to `O=C(N/N=C/c1ccc(-c2ccccc2Cl)o1)c1ccccc1`, for which the IC50 is > 50 µM (inactive).
As to `Cc1ccc2cc(C#N)c(N3CCCN(S(=O)(=O)c4ccc(F)cc4)CC3)nc2c1`, the IC50 is 31.6 µM.
For `CC(C)(C)Nc1c2ccccc2nc2ccccc12` the value was > 50 µM (inactive); for `CC/C(=N\NC(=O)c1cc(C2CC2)[nH]n1)c1ccccc1`, > 50 µM (inactive).
With `CCOC(=O)C1(CC2CCCCO2)CCN(C(=O)Nc2ccc3c(c2)OCO3)CC1` (stereo unspecified) the figure was > 50 µM (inactive); with `COc1ccc(NC(=O)N2CCCCCC2)cc1`, > 50 µM (inactive); with `COCCCn1c(N)c(C(=O)OC(C)COC)c2nc3ccccc3nc21` (stereo unspecified), 24.8 µM.
For the compound `CCCCc1cc(-c2n[nH]c(=S)o2)c2ccccc2n1`, the IC50 is > 50 µM (inactive).
With `N#CC1=C(N)Oc2cc3c(cc2C1c1ccc(Cl)cc1)OCO3` (stereo unspecified) the figure was > 50 µM (inactive).
`Cn1cnnc1SCC(=O)c1cc2ccccc2oc1=O`: the IC50 is > 50 µM (inactive).
Consider `Cc1cc(/C=c2/sc3nc4ccccc4n3c2=O)c(C)n1-c1ccccn1`, for which the IC50 is > 50 µM (inactive).
`Cc1ccccc1N=Cc1cc2c(cc1O)OC(N)=C(C#N)C2c1ccccc1` (stereo unspecified): the IC50 was > 50 µM (inactive).
In the case of `O=c1[nH]c(-[n+]2ccc3ccccc3c2)c(/C=N/N=C(\[O-])c2ccccc2)s1`, the IC50 was > 50 µM (inactive).
Take `O=C(Cn1nnc(-c2ccncc2)n1)NCCc1ccccc1`: the IC50 is > 50 µM (inactive).
For `Cc1c(O)c(CN2CCCCC2)cc2c3c(c(=O)oc12)CCC3`, the IC50 was 9.04 µM.
For `CN(C)CCCN(C(=O)c1ccc(Br)s1)c1nc2cc3c(cc2s1)OCCO3` the value was > 50 µM (inactive); for `CC1(C)CNC(=O)C=C(c2ccccc2)C1`, > 50 µM (inactive).
Take `O=Cc1ccc(N2Cc3ccccc3C2)cc1`: the IC50 was > 50 µM (inactive).
With `COCCNC(=O)/C(C#N)=C/c1ccc(-c2ccc(S(=O)(=O)N3CCOCC3)cc2)o1`, the IC50 is > 50 µM (inactive).
With `CN(C)c1ccc(/C=C(\NC(=O)c2ccccc2)C(=O)NCc2ccncc2)cc1` the figure was > 50 µM (inactive); with `NC(=O)c1ccccc1NC(=O)/C=C/c1ccc(Cl)cc1`, > 50 µM (inactive); with `CN(C)S(=O)(=O)c1ccc(N2CCCC2)c(C(=O)NC(c2ccccc2)c2ccccc2)c1`, > 50 µM (inactive).
For `O=C(Oc1ccc2c3c(c(=O)oc2c1)CCCC3)c1ccco1` the value was 16 µM; for `O=C(Cc1ccccc1C(=O)O)Nc1cccc2ccccc12`, > 50 µM (inactive); for `CC(C)NC(=O)/C(C#N)=C/c1ccc(N(C)C)o1`, 6.07 µM.
As for `COc1cccc(-c2cc(C(=O)NC3CC3)c3ccccc3n2)c1`, the IC50 was > 50 µM (inactive).
For `C/C(=N\NC(=O)c1c(C)nc2ccccn12)c1ccc(O)cc1O` the value was > 50 µM (inactive); for `CCOC(=O)c1ccc(CNC(=O)CSc2nnc(-c3ccncc3)o2)cc1`, > 50 µM (inactive).
`Cc1sc2nc(SCC(=O)NCc3ccco3)n(-c3ccccc3)c(=O)c2c1C`: the IC50 is > 50 µM (inactive).
Regarding `COCCn1c(=NC(=O)c2ccc3c(c2)OCO3)c(C#N)cc2c(=O)n3cccc(C)c3nc21`, the IC50 was > 50 µM (inactive).
For `Cc1oc2cc(O)ccc2c(=O)c1-c1nncn1-c1ccccc1` the value was 32.3 µM.

A word on the IC50: it is the midpoint of a concentration-inhibition curve.

Source of the values: PubChem BioAssay AID2823 (Broad Institute, 2010).
